In patent US20100311694A1, “Set of Geldanamycin Derivatives and Their Preparation Methods” (Institute of Medicinal Biotechnology, Chinese Academy of …, priority 2008, published 2010):

Assays:
HIV-1 = assay: Anti HIV-1 activity (HIV-1 P24 antigen in cell cultures); type: cell-based; settings: 4 days after addition of the reagents
Experimental: Test Procedure of Anti HIV-1 Activity
8 reagent solutions of different diluted concentrations and positive control solutions are added into cell cultures in 96 well plate respectively. The sample of each diluted solutions is made duplicately and a control cell sample is also is set up. 100 μl of cell sample at a concentration of 2×10^5cells/ml is inoculated into the wells containing reagent in the plate. The cells samples are cultured in a saturated humidity culture chamber (at a 5% CO2 atmosphere) at 37° C. The pathological changes of cells are observed daily.

HBV = assay: Anti-HBV activity (HBV DNA in cell lysate, spot hybridization); type: cell-based; settings: HBV DNA content of the cells, reagent solution changed every 4 days
Experimental: Test Procedure for Anti-HBV Activity
Using cell culture method, the preparation of the cells to be tested (100,000 cell's/mL) is inoculated into cell culture plate in 100 μl each well and the cells are cultured 24 h at 37° C. in 5% CO2. Tests are carried out when the cells grow into a monolayer. The target compounds as well as the controls are prepared into a series of solutions of appropriate concentrations using the culture medium and are added into 96 well culture plate respectively in 4 wells per one concentration. Then the reagent solution in each well is changed into the fresh reagent solution with the same concentration every 4 days. A cell control without reagent treatment is simultaneously is set up. The observation index is based upon the pathological changes of the cells by observing the degrees of the pathological changes of the cells under microscope every 8 days. […] Cell control without drug treatment is simultaneously is set up. The reagent solution or control medium in each well is changed into the fresh reagent solution or fresh medium respectively every 4 days. After cytolysis of the cells, HBV DNA is extracted from the cell lysis solution according to the molecular cloning technical procedure. The spots of different samples are hybridized and the A values of different hybridized spots are measured using autoradiograghic technique. The HBV DNA contents in the cell control as well as in the drug treated samples are calculated using the regression equations obtained from the standard curves to obtain half effective concentration values, the results are shown in Table 1.

| SMILES | Activity of HIV inhibition IC50 (HIV-1) [µg/mL] | Activity of HBV inhibition IC50 (HBV) [µg/mL] |
| --- | --- | --- |
| COC1C=CC=C(C)C(=O)NC2=CC(=O)C(NCCO)=C(CC(C)CC(OC)C(O)C(C)C=C(C)C1OC(N)=O)C2=O (centres unmarked) [GM-W42] | 0.091 | 0.01 |
| COC1C=CC=C(C)C(=O)NC2=CC(=O)C(NCCCN(CCO)CCO)=C(CC(C)CC(OC)C(O)C(C)C=C(C)C1OC(N)=O)C2=O (centres unmarked) [GM-W43] | 0.87 | 0.64 |
| COC1C=CC=C(C)C(=O)NC2=CC(=O)C(NC(c3ccccc3)c3ccccc3)=C(CC(C)CC(OC)C(O)C(C)C=C(C)C1OC(N)=O)C2=O (centres unmarked) [GM-W44] | >60 | >100 |
| COC1C=CC=C(C)C(=O)NC2=CC(=O)C(NCCCN(C)c3ccccc3)=C(CC(C)CC(OC)C(O)C(C)C=C(C)C1OC(N)=O)C2=O (centres unmarked) [GM-W45] | <1.67 | 0.32 |
| COC1C=CC=C(C)C(=O)NC2=CC(=O)C(NCCCN3CCOCC3)=C(CC(C)CC(OC)C(O)C(C)C=C(C)C1OC(N)=O)C2=O (centres unmarked) [GM-W46] | 1.32 | 1.49 |
| COC1C=CC=C(C)C(=O)NC2=CC(=O)C(NCCCN3CCCCC3C)=C(CC(C)CC(OC)C(O)C(C)C=C(C)C1OC(N)=O)C2=O (centres unmarked) [GM-W47] | 1.84 | 3.87 |
| COC1C=CC=C(C)C(=O)NC2=CC(=O)C(NCc3cccs3)=C(CC(C)CC(OC)C(O)C(C)C=C(C)C1OC(N)=O)C2=O (centres unmarked) [GM-W50] | 1.57 | 0.64 |
| COC1C=CC=C(C)C(=O)NC2=CC(=O)C(NCCN3CCCC3)=C(CC(C)CC(OC)C(O)C(C)C=C(C)C1OC(N)=O)C2=O (centres unmarked) [GM-W52] | 0.65 | 0.32 |
| COC1C=CC=C(C)C(=O)NC2=CC(=O)C(NCc3cc(O)co3)=C(CC(C)CC(OC)C(O)C(C)C=C(C)C1OC(N)=O)C2=O (centres unmarked) [GM-W53] | 0.37 | 0.46 |
| COC1C=CC=C(C)C(=O)NC2=CC(=O)C(Nc3cnc(C)c(C)n3)=C(CC(C)CC(OC)C(O)C(C)C=C(C)C1OC(N)=O)C2=O (centres unmarked) [GM-W57] | 13.76 | 8.0 |
| COC1C=CC=C(C)C(=O)NC2=CC(=O)C(NC(CO)C(C)C)=C(CC(C)CC(OC)C(O)C(C)C=C(C)C1OC(N)=O)C2=O (centres unmarked) [GM-W58] | 1.39 | 0.64 |
| CCCCCC(NC1=C2CC(C)CC(OC)C(O)C(C)C=C(C)C(OC(N)=O)C(OC)C=CC=C(C)C(=O)NC(=CC1=O)C2=O)P(=O)(O)O (centres unmarked) [GM-W62] | 1.76 | 0.89 |
| CCC(CO)(CO)NC1=C2CC(C)CC(OC)C(O)C(C)C=C(C)C(OC(N)=O)C(OC)C=CC=C(C)C(=O)NC(=CC1=O)C2=O (centres unmarked) [GM-W63] | 1.37 | 3.2 |
| COC1C=CC=C(C)C(=O)NC2=CC(=O)C(NN3CCN(CCO)CC3)=C(CC(C)CC(OC)C(O)C(C)C=C(C)C1OC(N)=O)C2=O (centres unmarked) [GM-W64] | 3.75 | 8.6 |
| COC1C=CC=C(C)C(=O)NC2=CC(=O)C(NCC3(O)CCCCC3)=C(CC(C)CC(OC)C(O)C(C)C=C(C)C1OC(N)=O)C2=O (centres unmarked) [GM-W65] | 6.81 | 3.1 |
| COC1C=CC=C(C)C(=O)NC2=CC(=O)C(NN3CCOCC3)=C(CC(C)CC(OC)C(O)C(C)C=C(C)C1OC(N)=O)C2=O (centres unmarked) [GM-W68] | 10.46 | 4.6 |

| SMILES | Activity of HIV inhibition IC50 (HIV-1) [µg/mL] | Activity of HBV inhibition IC50 (HBV) [µg/mL] |
| --- | --- | --- |
| COC1C=CC=C(C)C(=O)NC2=CC(=O)C(NC3CC(C)(C)N(C)C(C)(C)C3)=C(CC(C)CC(OC)C(O)C(C)C=C(C)C1OC(N)=O)C2=O (centres unmarked) [GM-W69] | 22.23 | 10.8 |
| COC1C=CC=C(C)C(=O)NC2=CC(=O)C(NN3CCCCC3)=C(CC(C)CC(OC)C(O)C(C)C=C(C)C1OC(N)=O)C2=O (centres unmarked) [GM-W72] | 6.45 | 3.2 |
| COC1C=CC=C(C)C(=O)NC2=CC(=O)C(NCC(O)CO)=C(CC(C)CC(OC)C(O)C(C)C=C(C)C1OC(N)=O)C2=O (centres unmarked) [GM-W74] | 0.47 | 8.9 |
| COC1C=CC=C(C)C(=O)NC2=CC(=O)C(NCCCN3CCOCC3)=C(CC(C)CC(OC)C(O)C(C)C=C(C)C1OC(N)=O)C2=O (centres unmarked) [GM-W75] | 1.21 | 0.1 |
| COC1C=CC=C(C)C(=O)NC2=CC(=O)C(NCCCN3CCCC3)=C(CC(C)CC(OC)C(O)C(C)C=C(C)C1OC(N)=O)C2=O (centres unmarked) [GM-W76] | 0.24 | 0.01 |
| COC1C=CC=C(C)C(=O)NC2=CC(=O)C(Nn3cnnc3)=C(CC(C)CC(OC)C(O)C(C)C=C(C)C1OC(N)=O)C2=O (centres unmarked) [GM-W77] | 8.97 | 7.36 |
| COC1C=CC=C(C)C(=O)NC2=CC(=O)C(NCCC3CC(CC(=O)OC(C)(C)C)OC(C)(C)O3)=C(CC(C)CC(OC)C(O)C(C)C=C(C)C1OC(N)=O)C2=O (centres unmarked) [GM-W79] | 1.47 | 3.2 |
| CCOC(=O)N1CCC(NC2=C3CC(C)CC(OC)C(O)C(C)C=C(C)C(OC(N)=O)C(OC)C=CC=C(C)C(=O)NC(=CC2=O)C3=O)CC1 (centres unmarked) [GM-W80] | 0.97 | 1.1 |
| COC1C=CC=C(C)C(=O)NC2=CC(=O)C(NC(CO)c3cc(Cl)cc(Cl)c3)=C(CC(C)CC(OC)C(O)C(C)C=C(C)C1OC(N)=O)C2=O (centres unmarked) [GM-W81] | 2.46 | 2.3 |
| COC1C=CC=C(C)C(=O)NC2=CC(=O)C(NNC(=O)c3ccco3)=C(CC(C)CC(OC)C(O)C(C)C=C(C)C1OC(N)=O)C2=O (centres unmarked) [GM-W83] | 3.56 | 3.2 |
| C=CC(C)(CCC=C(C)CCC=C(C)CCC=C(C)C)OC(=O)CCCNC1=C2CC(C)CC(OC)C(O)C(C)C=C(C)C(OC(N)=O)C(OC)C=CC=C(C)C(=O)NC(=CC1=O)C2=O (centres unmarked) [GM-W84] | 1.24 | 0.8 |
| COC1C=CC=C(C)C(=O)NC2=CC(=O)C(NCCCC(=O)OCC=C(C)CCC=C(C)CCC=C(C)C)=C(CC(C)CC(OC)C(O)C(C)C=C(C)C1OC(N)=O)C2=O (centres unmarked) [GM-W85] | 0.78 | 0.01 |
| COc1cccc(CCNC2=C3CC(C)CC(OC)C(O)C(C)C=C(C)C(OC(N)=O)C(OC)C=CC=C(C)C(=O)NC(=CC2=O)C3=O)c1 (centres unmarked) [GM-W87] | 0.39 | 0.064 |
| COC1C=CC=C(C)C(=O)NC2=CC(=O)C(NCc3ccc(C)o3)=C(CC(C)CC(OC)C(O)C(C)C=C(C)C1OC(N)=O)C2=O (centres unmarked) [GM-W88] | 0.24 | 0.08 |
| COC1C=CC=C(C)C(=O)NC2=CC(=O)C(NC(C)Cc3c[nH]c4ccccc34)=C(CC(C)CC(OC)C(O)C(C)C=C(C)C1OC(N)=O)C2=O (centres unmarked) [GM-W89] | 1.68 | 2.36 |
